{"source": "patent US11261152B2", "about": "“Inhibitors of the N-terminal domain of the androgen receptor” (The Regents of the University of California, priority 2017, dated 2022)", "key": {"[1]": {"system": "androgen response element (ARE)", "test": "ARE reporter assay (tandem copies of the androgen response element)", "format": "cell-based", "procedure": "FIG. 11A. Effects of JN series compounds in reporter assays for androgen response element. Experiments were performed in triplicate and results are means+/−s.d."}, "[2]": {"biological_target": "T1, full length AR and AR splice variants (AR-V7, AR Δ567) (Homo sapiens, UniProt P10275)", "T1 construct": "endogenous in cells; host or cells: LNCaP-AR (engineered to overexpress full length AR), 22Rv1 (endogenous full length AR and AR-V7), PC3 stably expressing AR Δ567", "T1 sequence (P10275 1-920)": "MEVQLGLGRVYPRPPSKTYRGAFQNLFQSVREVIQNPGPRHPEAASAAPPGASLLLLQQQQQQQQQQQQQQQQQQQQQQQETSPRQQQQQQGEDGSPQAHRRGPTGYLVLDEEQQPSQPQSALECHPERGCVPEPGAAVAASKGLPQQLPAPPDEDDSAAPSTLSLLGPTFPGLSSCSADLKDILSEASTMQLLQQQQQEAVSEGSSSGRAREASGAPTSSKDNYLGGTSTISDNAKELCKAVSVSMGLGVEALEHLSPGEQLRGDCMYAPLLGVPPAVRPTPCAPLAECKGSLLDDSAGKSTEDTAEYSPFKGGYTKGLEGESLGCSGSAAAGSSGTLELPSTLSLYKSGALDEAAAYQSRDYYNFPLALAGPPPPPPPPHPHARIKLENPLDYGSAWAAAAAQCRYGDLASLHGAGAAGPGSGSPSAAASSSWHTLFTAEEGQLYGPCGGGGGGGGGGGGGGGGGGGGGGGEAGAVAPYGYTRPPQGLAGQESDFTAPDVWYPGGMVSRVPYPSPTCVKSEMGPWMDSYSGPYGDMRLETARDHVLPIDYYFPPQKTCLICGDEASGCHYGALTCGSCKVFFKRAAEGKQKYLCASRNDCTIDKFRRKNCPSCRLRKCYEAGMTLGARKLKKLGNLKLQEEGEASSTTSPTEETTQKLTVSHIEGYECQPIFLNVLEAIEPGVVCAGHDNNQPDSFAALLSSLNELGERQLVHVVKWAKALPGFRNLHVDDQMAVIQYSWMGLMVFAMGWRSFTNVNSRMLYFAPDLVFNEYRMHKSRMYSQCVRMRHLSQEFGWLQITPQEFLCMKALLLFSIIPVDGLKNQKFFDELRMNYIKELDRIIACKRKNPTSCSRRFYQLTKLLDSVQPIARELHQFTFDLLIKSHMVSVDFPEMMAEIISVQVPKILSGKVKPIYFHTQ", "T1 sequence (P10275 1-644 isoform P10275-3)": "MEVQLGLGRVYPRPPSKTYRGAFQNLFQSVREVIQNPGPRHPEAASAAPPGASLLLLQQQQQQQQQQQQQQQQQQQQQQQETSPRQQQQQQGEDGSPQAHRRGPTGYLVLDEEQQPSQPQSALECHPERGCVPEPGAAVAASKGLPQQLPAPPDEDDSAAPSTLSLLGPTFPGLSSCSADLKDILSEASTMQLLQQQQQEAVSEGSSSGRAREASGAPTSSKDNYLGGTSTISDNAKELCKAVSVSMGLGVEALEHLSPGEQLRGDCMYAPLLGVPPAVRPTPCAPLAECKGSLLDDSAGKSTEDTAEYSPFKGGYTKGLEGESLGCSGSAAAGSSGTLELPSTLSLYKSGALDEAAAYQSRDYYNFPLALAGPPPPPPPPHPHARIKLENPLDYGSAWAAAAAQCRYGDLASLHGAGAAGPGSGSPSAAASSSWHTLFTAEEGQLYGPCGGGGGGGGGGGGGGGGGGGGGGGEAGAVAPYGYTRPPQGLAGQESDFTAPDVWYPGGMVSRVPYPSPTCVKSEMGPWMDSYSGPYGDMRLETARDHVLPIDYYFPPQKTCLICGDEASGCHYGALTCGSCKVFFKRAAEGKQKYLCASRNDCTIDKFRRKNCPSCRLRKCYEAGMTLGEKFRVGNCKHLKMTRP", "T1 sequence (P10275 with tags, fused parts or gaps limits assumed)": "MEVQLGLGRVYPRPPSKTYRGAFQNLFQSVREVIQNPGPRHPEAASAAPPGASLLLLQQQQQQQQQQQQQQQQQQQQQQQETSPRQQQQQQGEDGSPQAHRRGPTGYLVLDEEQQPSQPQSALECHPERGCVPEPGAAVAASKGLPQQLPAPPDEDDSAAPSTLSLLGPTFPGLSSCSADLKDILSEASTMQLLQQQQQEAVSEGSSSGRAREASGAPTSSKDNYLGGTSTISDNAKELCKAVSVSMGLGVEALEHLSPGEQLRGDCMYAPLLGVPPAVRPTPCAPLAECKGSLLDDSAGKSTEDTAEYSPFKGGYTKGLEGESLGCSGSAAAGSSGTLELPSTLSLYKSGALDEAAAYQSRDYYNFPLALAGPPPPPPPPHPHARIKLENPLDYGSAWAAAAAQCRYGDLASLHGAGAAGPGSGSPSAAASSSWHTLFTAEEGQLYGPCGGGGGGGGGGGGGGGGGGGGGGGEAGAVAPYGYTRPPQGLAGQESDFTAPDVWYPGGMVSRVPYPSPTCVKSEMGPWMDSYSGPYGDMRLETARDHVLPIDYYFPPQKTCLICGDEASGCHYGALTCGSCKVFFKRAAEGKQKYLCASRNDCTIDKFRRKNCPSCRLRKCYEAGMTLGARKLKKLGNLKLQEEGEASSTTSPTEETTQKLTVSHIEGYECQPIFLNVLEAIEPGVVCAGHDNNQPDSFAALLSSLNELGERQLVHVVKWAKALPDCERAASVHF", "test": "AR degradation, protein stability experiments with cycloheximide (Western blot)", "format": "cell-based", "procedure": "A) LNCaP-AR cells were exposed to the indicated compounds or vehicle (DMSO) in the presence of cycloheximide for the indicated times. Western blots were performed for the indicated proteins. B) Same as A but in 22Rv1 cells."}}, "note": "Where a name gives a salt, the structure may show the parent alone."}
{"compound": "C=C(CN(C)Cc1ccccc1)C(=O)/C(=C/c1ccc(Cl)cc1)c1ccccc1", "note": "[JN018, (E)-4-((Benzyl(methyl)amino)methyl)-1-(4-chlorophenyl)-2-phenylpenta-1,4-dien-3-one hydrochloride]", "values": [{"measurement": "ARE", "setting": "[1]; Table 3 grade HIGH/MED/LOW, grades not defined", "result": "HIGH"}, {"measurement": "reporter activity driven by the ARE", "setting": "[1]; result in words", "result": "inhibits reporter activity"}, {"measurement": "IC50 for AR Degradation", "setting": "[2]", "result": "~2.0", "unit": "µM"}, {"measurement": "degradation of AR splice variant AR Δ567", "setting": "[2]; stably introduced into PC3 cells", "result": "enhanced degradation"}]}
